Reference: PMC8854719, “Phase 1A/1B dose-escalation and -expansion study to evaluate the safety, pharmacokinetics, food effects and antitumor activity of pamiparib in advanced solid tumours” (British Journal of Cancer, 2021)
Marks after values point to notes of the source that are not given here.

Test: Safety and tolerability: adverse events, dose-limiting toxicities, MTD, RP2D (Phase 1A/1B)
Format: in vivo
Experimental: This was an open-label, Phase 1, dose-escalation/dose-expansion study, conducted across six study centres in Australia. The dose-escalation phase evaluated twice-daily (BID) and once-daily (QD) dosing, and the dose-expansion phase evaluated the BID RP2D from the dose-escalation phase and food effects (Fig. 1). The food-effects cohort comprised two sequences: fast followed by fed (sequence 1) and fed followed by fast (sequence 2). […] The decision to proceed to the next dose cohort was determined by the Safety Monitoring Committee and followed a modified 3 + 3 escalation scheme. […] When ≥2 DLTs occurred in the first 23 days of a dose level, the next lower dose level was declared the MTD. Safety was monitored and DLTs were assessed in all dose cohorts. […] The food-effects cohort investigated the effects of food on the PK of pamiparib in patients with advanced solid tumours.
The QD dosing regimen was added as an amendment to the protocol with the purpose of exploring the feasibility of a more convenient regimen.
Safety and tolerability were assessed throughout the study by monitoring adverse events (AEs), serious AEs, clinical laboratory measurements and physical examinations. Adverse events were categorised according to their severity (National Cancer Institute Common Terminology Criteria for Adverse Events v4.03) and relationship to the study treatment.

C[C@]12CCCN1CC1=NNC(=O)c3cc(F)cc4[nH]c2c1c34 [pamiparib]
3 (30.0) n (%): Neutropenia, AE of any grade (80 mg BID (n = 10)) | Treatment-emergent AE: Serious (80 mg BID (n = 10)) | Treatment-related AE: Grade 3 or higher (80 mg BID (n = 10))
8 (80.0) n (%): Nausea, AE of any grade (80 mg BID (n = 10))
9 (90.0) n (%): Treatment-related AE (80 mg BID (n = 10))
0 (0.0) n (%): Back pain, AE of any grade (80 mg BID (n = 10)) | Dyspnoea, AE of any grade (80 mg BID (n = 10)) | Headache, AE of any grade (80 mg BID (n = 10)) | Hypoalbuminemia, AE of any grade (80 mg BID (n = 10)) | Hypophosphatemia, AE of any grade (80 mg BID (n = 10)) | Increased AST, AE of any grade (80 mg BID (n = 10)) | Pain in extremity, AE of any grade (80 mg BID (n = 10)) | Peripheral sensory neuropathy, AE of any grade (80 mg BID (n = 10)) | Pleural effusion, AE of any grade (80 mg BID (n = 10)) | Treatment-emergent AE: Leading to treatment discontinuation (80 mg BID (n = 10)) | Treatment-related AE: Leading to death (80 mg BID (n = 10)) | Treatment-related AE: Leading to treatment discontinuation (80 mg BID (n = 10)) | Abdominal pain, AE of any grade (120 mg BID (n = 5)) | Ascites, AE of any grade (120 mg BID (n = 5)) | Constipation, AE of any grade (120 mg BID (n = 5)) | Dyspnoea, AE of any grade (120 mg BID (n = 5)) | Headache, AE of any grade (120 mg BID (n = 5)) | Hypoalbuminemia, AE of any grade (120 mg BID (n = 5)) | Hypomagnesemia, AE of any grade (120 mg BID (n = 5)) | Muscle spasms, AE of any grade (120 mg BID (n = 5)) | Peripheral sensory neuropathy, AE of any grade (120 mg BID (n = 5))
2 (40.0)^c n (%): Dose-limiting toxicity (120 mg BID (n = 5))
2 (40.0) n (%): Decreased appetite, AE of any grade (120 mg BID (n = 5)) | Diarrhoea, AE of any grade (120 mg BID (n = 5)) | Fatigue, AE of any grade (120 mg BID (n = 5))
10 (100.0) n (%): Treatment-emergent AE (80 mg BID (n = 10))
4 (40.0) n (%): Constipation, AE of any grade (80 mg BID (n = 10)) | Fatigue, AE of any grade (80 mg BID (n = 10)) | Treatment-emergent AE: Grade 3 or higher (80 mg BID (n = 10))
1 (10.0) n (%): Ascites, AE of any grade (80 mg BID (n = 10)) | Cough, AE of any grade (80 mg BID (n = 10)) | Diarrhoea, AE of any grade (80 mg BID (n = 10)) | Muscle spasms, AE of any grade (80 mg BID (n = 10)) | Non-cardiac chest pain, AE of any grade (80 mg BID (n = 10)) | Pyrexia, AE of any grade (80 mg BID (n = 10)) | Treatment-emergent AE: Leading to death (80 mg BID (n = 10)) | Treatment-emergent AE: Leading to dose reduction (80 mg BID (n = 10)) | Treatment-related AE: Leading to dose reduction (80 mg BID (n = 10)) | Treatment-related AE: Serious (80 mg BID (n = 10))
2 (20.0) n (%): Decreased appetite, AE of any grade (80 mg BID (n = 10)) | Hypomagnesemia, AE of any grade (80 mg BID (n = 10)) | Urinary tract infection, AE of any grade (80 mg BID (n = 10)) | Vomiting, AE of any grade (80 mg BID (n = 10))
5 (50.0) n (%): Treatment-emergent AE: Leading to dose interruption (80 mg BID (n = 10)) | Treatment-emergent AE: Leading to dose modification (80 mg BID (n = 10)) | Treatment-related AE: Leading to dose interruption (80 mg BID (n = 10)) | Treatment-related AE: Leading to dose modification (80 mg BID (n = 10)) | Upper respiratory tract infection, AE of any grade (80 mg BID (n = 10))
Grade 2 nausea: Dose-limiting toxicities observed (description) (80 mg BID, n = 1)
4 (80.0) n (%): Nausea, AE of any grade (120 mg BID (n = 5))
1 (20.0) n (%): Back pain, AE of any grade (120 mg BID (n = 5)) | Cough, AE of any grade (120 mg BID (n = 5)) | Hypophosphatemia, AE of any grade (120 mg BID (n = 5)) | Increased AST, AE of any grade (120 mg BID (n = 5)) | Neutropenia, AE of any grade (120 mg BID (n = 5)) | Non-cardiac chest pain, AE of any grade (120 mg BID (n = 5)) | Pain in extremity, AE of any grade (120 mg BID (n = 5)) | Pleural effusion, AE of any grade (120 mg BID (n = 5))
3 (60.0) n (%): Anaemia, AE of any grade (120 mg BID (n = 5))
1 (10.0)^b n (%): Dose-limiting toxicity (80 mg BID (n = 10))
